The conditions of this data set: Liquid; Ebulliometric method (Recirculating still).

Numbers after ± are expanded uncertainties.

On to `CC(=O)O` [acetic acid], for which the Normal boiling temperature was found to be 118 ± 0.2 °C.
In the case of `C[S+](C)[O-]` [dimethyl sulfoxide], the Normal boiling temperature was 188.77 ± 0.2 °C.
With `CN(C)C=O` [dimethylformamide] the figure was 152.6 ± 0.2 °C.
